“And” between values parts separate entries of the source, which are not always exact repeats. Equal entries are not always repeated.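 Method: 48-hour compound exposure of cells in 96-well plates, five concentrations, linear interpolation of endpoints. GI50: concentration for 50% inhibition of growth. TGI marks complete inhibition of growth.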
Key:
Test in all cases: inhibition of tumour cell growth, NCI panel, 48 h
EKVX NSCLC = tested on: EKVX NSCLC
HCC-2998 colon = tested on: HCC-2998 colon
MDA-MB-435 = tested on: MDA-MB-435
NCI-H460 lung = tested on: NCI-H460 lung
OVCAR-3 ovarian = tested on: OVCAR-3 ovarian
OVCAR-5 ovarian = tested on: OVCAR-5 ovarian
RPMI-8226 leukemia = tested on: RPMI-8226 leukemia
SK-MEL-5 melanoma = tested on: SK-MEL-5 melanoma
SNB-19 CNS = tested on: SNB-19 CNS
UACC-257 melanoma = tested on: UACC-257 melanoma

Row | SMILES | GI50 (EKVX NSCLC) | TGI (EKVX NSCLC) | GI50 (HCC-2998 colon) | TGI (HCC-2998 colon) | GI50 (MDA-MB-435) | TGI (MDA-MB-435) | GI50 (NCI-H460 lung) | TGI (NCI-H460 lung) | GI50 (OVCAR-3 ovarian) | TGI (OVCAR-3 ovarian) | GI50 (OVCAR-5 ovarian) | TGI (OVCAR-5 ovarian) | GI50 (RPMI-8226 leukemia) | TGI (RPMI-8226 leukemia) | GI50 (SK-MEL-5 melanoma) | TGI (SK-MEL-5 melanoma) | GI50 (SNB-19 CNS) | TGI (SNB-19 CNS) | GI50 (UACC-257 melanoma) | TGI (UACC-257 melanoma)
1 | Cc1cc(S(=O)(=O)/N=C(/N)Nc2ccccc2O)c(SCc2ccccc2)cc1Cl | 11 µM | 37.8 µM | 14.5 µM | 29.7 µM | 13.5 µM | 32 µM | 7.64 µM | 50.7 µM | 14.5 µM | 34.1 µM | 19.8 µM | 35.9 µM | 11.4 µM | 52.3 µM | 14.6 µM | 30.5 µM | 16.6 µM | 34 µM | 14.6 µM | 30.4 µM
2 | O=C1c2cccnc2C(=O)c2c1c(C(=O)NCCCN1CCCCC1)c1ccccn21 | 1.37 µM | 3.2 µM | 0.529 µM | 2.04 µM | 0.403 µM | 1.52 µM | 0.299 µM | 1.46 µM | 0.321 µM | 1.75 µM | 1.85 µM | 7.44 µM | 3.43 µM | > 100 µM | 0.36 µM | 1.35 µM | 1.12 µM | 2.57 µM | 0.813 µM | 2.18 µM
3 | Nc1nc(OCc2ccccc2)c2[nH]cnc2n1 | 64.1 µM and 32.3 µM | 307 µM and 274 µM | 46.2 µM and 56 µM | 400 µM and 182 µM | 41.1 µM and 26.9 µM | 143 µM | 35.8 µM and 37.6 µM | 400 µM and 195 µM | 33.9 µM | 400 µM and 284 µM | 52.7 µM and 42.6 µM | 241 µM and 240 µM | 50 µM and 21.6 µM | 69 µM | 34.5 µM and 35.4 µM | 193 µM and 149 µM | 86.2 µM and 33 µM | 400 µM and 213 µM | 39.8 µM and 157 µM | 400 µM and 736 µM
4 | O=S(=O)(Nc1cc(Sc2cccc3cccnc23)c(O)c2ccccc12)c1ccc(F)cc1 | 1.41 µM | 6.5 µM | 4.8 µM | 15.6 µM | 2.27 µM | 8.66 µM | 0.59 µM | 11 µM | 0.869 µM | 3.08 µM | 2.63 µM | 10.6 µM | 2.09 µM | 7.36 µM | 1.66 µM | 3.16 µM | 2.55 µM | 17.1 µM | 1.75 µM | 4.56 µM
5 | CCc1ccc2c(c1)N(CCO)C1=C(C(=O)OC1)C2c1cccc(Br)c1 (stereo not given) | 2.45 µM | 20.6 µM | 1.05 µM | 7.82 µM | 0.0979 µM | 0.521 µM | 0.397 µM | 11.9 µM | 0.296 µM | 1.23 µM | 4.37 µM | 20.8 µM | 0.983 µM | 33.5 µM | 0.256 µM | 8.67 µM | 0.806 µM | 18.4 µM | 0.623 µM | 19.6 µM
6 | CC(=O)/C=C/c1cn(C(=O)OC(C)(C)C)c2ccc(Br)cc12 | 24.5 µM | 84.3 µM | 18 µM | 37.4 µM | 9.97 µM | 25.9 µM | 17 µM | 36.4 µM | 13 µM | 28.3 µM | 25.6 µM | 53.9 µM | 9.41 µM | > 66.5 µM | 13.6 µM | 32.9 µM | 15.4 µM | 30.1 µM | > 70.3 µM | > 100 µM
7 | O=C(/C=C\c1cccc([N+](=O)[O-])c1)/C=C/c1cccc([N+](=O)[O-])c1 | > 100 µM | > 100 µM | 2.6 µM | 6.9 µM | 2.79 µM | 12.4 µM | 6.61 µM | > 100 µM | 2.18 µM | 4.32 µM | 19.7 µM | > 100 µM | 0.43 µM | 1.6 µM | 61.3 µM | > 100 µM | 16.4 µM | > 100 µM | 21.4 µM | > 100 µM
8 | O=C1OCC2=C1C(c1ccc(Cl)c(Cl)c1)c1cc3c(cc1N2CCO)OCCO3 (stereo not given) | 1.23 µM | > 38.6 µM | 0.503 µM | 4.33 µM | 0.102 µM | 0.468 µM | 0.192 µM | 5.77 µM | 0.127 µM | 0.351 µM | 0.736 µM | > 33.2 µM | 0.405 µM | 12.9 µM | 0.148 µM | 6.37 µM | 0.327 µM | > 50 µM | 0.181 µM | 19.4 µM
9 | Fc1ccc(/C=N/n2c(-c3ccc(F)c(Cl)c3)nn(CNc3ccccc3C(F)(F)F)c2=S)cc1 | 37.2 µM | > 100 µM | 89.7 µM | > 100 µM | 43.1 µM | > 100 µM | 43.3 µM | > 100 µM | 53.9 µM | > 100 µM | > 100 µM | > 100 µM | 38.6 µM | > 100 µM | 33 µM | > 100 µM | > 100 µM | > 100 µM | 42.5 µM | > 100 µM
10 | O=C(O)c1ccc(C(=O)c2ccccc2)c(C(=O)O)c1 | – | > 100 µM | – | > 100 µM | – | > 100 µM | – | > 100 µM | – | > 100 µM | – | > 100 µM | – | > 100 µM | – | > 100 µM | – | > 100 µM | – | > 100 µM
